From ChEMBL document CHEMBL1201862, “PubChem BioAssay data set” (2004)
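Briefly, cells in 96-well plates were exposed to five compound concentrations for 48 h, and endpoints were estimated by linear interpolation. At the GI50, growth is halved.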 Activity calls are given as the source filed them. Cut-off read from the data, not from the text of the source: active = GI50 up to about 1.1 µM and inactive = higher.

How the values were obtained:
Assay in all cases: NCI-60 cell line screen, 48 h
K562 = system: K562
SK-MEL-28 = system: SK-MEL-28
NCI-H226 = system: NCI-H226
SR = system: SR
A549 = system: A549
UACC-62 = system: UACC-62
CAKI-1 = system: CAKI-1
HL-60 = system: HL-60
HOP-92 = system: HOP-92
RPMI-8226 = system: RPMI-8226
U-251 = system: U-251
NCI-H460 = system: NCI-H460
CCRF-CEM = system: CCRF-CEM
SN12C = system: SN12C
786-0 = system: 786-0
SNB-75 = system: SNB-75
SW-620 = system: SW-620
MCF7 = system: MCF7
DU-145 = system: DU-145

Measured: GI50

COc1ccc(C2COc3c(ccc(OC)c3OC)C2=O)cc1OC (stereo unspecified)
inactive: K562 > 100 µM | SK-MEL-28 > 100 µM | NCI-H226 > 100 µM | SR > 100 µM | A549 > 100 µM | UACC-62 > 100 µM | CAKI-1 > 100 µM | HL-60 > 100 µM | HOP-92 > 100 µM | RPMI-8226 > 100 µM | U-251 > 100 µM | NCI-H460 > 100 µM | CCRF-CEM > 100 µM | SN12C > 100 µM | 786-0 > 100 µM | SNB-75 > 100 µM | SW-620 > 100 µM

COC[C@@H]1[C@H]2OC(C)(C)O[C@H]2C(=O)N1C(=O)c1ccc(OC)cc1
inactive: K562 > 100 µM | SK-MEL-28 > 100 µM | NCI-H226 > 100 µM | SR > 100 µM | A549 > 100 µM | UACC-62 > 100 µM | CAKI-1 > 100 µM | HL-60 > 100 µM | HOP-92 > 100 µM | RPMI-8226 > 100 µM | U-251 > 100 µM | NCI-H460 > 100 µM | CCRF-CEM > 100 µM | SN12C > 100 µM | 786-0 > 100 µM | SNB-75 > 100 µM | SW-620 > 100 µM

Cc1nc(-c2cc3c(ccc4ccccc43)oc2=O)cc2c1c(=O)oc1ccc3ccccc3c12
inactive: MCF7 > 100 µM | K562 > 100 µM | SK-MEL-28 > 100 µM | SR > 100 µM | A549 > 100 µM | UACC-62 > 100 µM | CAKI-1 > 100 µM | HL-60 > 100 µM | HOP-92 > 100 µM | U-251 > 100 µM | NCI-H460 > 100 µM | CCRF-CEM > 100 µM | 786-0 > 100 µM | SW-620 > 100 µM | DU-145 > 100 µM

CC1OC(CC(=O)O)Cc2c(O)c3c(c(O)c21)C(=O)C=C(C1=CC(=O)c2c(O)c4c(c(O)c2C1=O)CC(CC(=O)O)OC4C)C3=O (stereo unspecified)
inactive: K562 9.4 µM | SK-MEL-28 14.7 µM | NCI-H226 50.8 µM | SR 3.69 µM | A549 45.1 µM | UACC-62 12.8 µM | CAKI-1 29.1 µM | HL-60 3.03 µM | HOP-92 24.3 µM | RPMI-8226 12.4 µM | U-251 26.1 µM | NCI-H460 60.8 µM | CCRF-CEM 2.75 µM | SN12C 16.6 µM | 786-0 21.4 µM | SNB-75 59.6 µM | SW-620 7.4 µM

CC(=O)C(=C(I)I)c1ccccc1
inactive: MCF7 27.6 µM | K562 15 µM | SK-MEL-28 19.5 µM | NCI-H226 11.5 µM | SR 13.1 µM | A549 24.6 µM | UACC-62 25.5 µM | CAKI-1 1.84 µM | HL-60 24.7 µM | HOP-92 37.2 µM | U-251 17.5 µM | NCI-H460 33.4 µM | CCRF-CEM 11.5 µM | SN12C 13.3 µM | 786-0 19.7 µM | SW-620 18.3 µM | DU-145 29.7 µM

CN(C)CCN(C)CC1COC(C)(C)O1 (stereo unspecified)
inactive: K562 > 100 µM | SK-MEL-28 > 100 µM | NCI-H226 > 100 µM | SR > 100 µM | A549 > 100 µM | UACC-62 > 100 µM | CAKI-1 > 100 µM | HL-60 > 100 µM | HOP-92 > 100 µM | RPMI-8226 > 100 µM | U-251 > 100 µM | NCI-H460 > 100 µM | CCRF-CEM > 100 µM | SN12C > 100 µM | 786-0 > 100 µM | SNB-75 > 100 µM | SW-620 > 100 µM

O=S(=O)(SC1=NCCN1)c1cccc2ccccc12
inactive: MCF7 30.9 µM | K562 24 µM | SK-MEL-28 47 µM | NCI-H226 21.6 µM | SR > 10 µM | A549 22.8 µM | UACC-62 34.4 µM | CAKI-1 24.9 µM | HL-60 > 10 µM | HOP-92 36.8 µM | RPMI-8226 19.1 µM | U-251 35.1 µM | NCI-H460 22.7 µM | CCRF-CEM 21.8 µM | SN12C 23 µM | 786-0 25.4 µM | SNB-75 13.8 µM | SW-620 32.7 µM | DU-145 29.6 µM

SCCSCCCSCCS
inactive: MCF7 70.8 µM | K562 92.7 µM | SK-MEL-28 > 100 µM | SR 4.16 µM | A549 > 100 µM | UACC-62 > 100 µM | HL-60 9.31 µM | U-251 > 100 µM | NCI-H460 31.1 µM | CCRF-CEM 10.5 µM | SN12C > 100 µM | 786-0 > 100 µM | SNB-75 59.3 µM | SW-620 > 100 µM | DU-145 56.4 µM

COc1cc(Br)c(CC2NCCc3cc(OC)c(OC)cc32)cc1OC (stereo unspecified)
inactive: K562 32.8 µM | SK-MEL-28 70.5 µM | NCI-H226 32.8 µM | SR 50.9 µM | A549 81.1 µM | UACC-62 77.4 µM | CAKI-1 68.7 µM | HL-60 28.4 µM | HOP-92 16.5 µM | RPMI-8226 18.8 µM | U-251 84.3 µM | NCI-H460 55.2 µM | CCRF-CEM > 100 µM | SN12C 94.4 µM | 786-0 93.5 µM | SNB-75 70.3 µM | SW-620 > 100 µM
